# Test results: patent US9080197B2, “Equol level regulator” (priority 2005, dated 2015)
# Like-named read-outs stand apart in the source and are kept apart here.
# How the values were obtained:
# [1] = test system: feces of an equol producer (microorganisms having conversion ability to equol); test: Effect of carbohydrates upon equol production in anaerobic culture of feces of an equol producer with daidzein; type: cell-based; details: for activity at 1 %: Homo sapiens; for Equol concentration in medium: anaerobic, 37° C., no carbohydrate 18.1 μM; for daidzein added to the medium remaining: 100 μM of daidzein added
# Excerpt: The equol concentration regulating activity of a carbohydrate can be checked by taking feces from a human having ability to produce equol (equol producer), adding daidzein serving as a substrate for equol and a target carbohydrate to the feces thus taken, culturing the feces, determining the concentration of equol in the culture medium and fitting the determined equol concentration to the following equation in comparison with the concentration of equol in a culture medium containing no carbohydrate. Equal concentration regulating activity (%)=(equol concentration of a culture medium containing a target carbohydrate)/(equol concentration of a culture medium containing no carbohydrate)×100
# Fresh feces of an equol producer were suspended in a dilute solution (10-fold by volume) containing 0.00255% of KH2PO4, 0.00255% of K2HPO4, 0.006% of NaCl, […] of (NH4)2SO4, 0.000255% of CaCl2, 0.000255% of MgSO4, 0.1% of a 0.1% resazurin solution, 2.2% of an 8% Na2CO3 solution and 0.05% of L-cysteine hydrochloride by use of glass beads (φ 3 mm) in anaerobic conditions and solid matter was removed by use of sterilized gauze. The solution was centrifuged at 8,000 rpm for 10 minutes. Precipitation was suspended in a dilute solution in the same amount thereof. The solution was stored in a freezer at −30° C. as it was.
# The feces dilution solution was thawed and centrifuged again. Precipitation was resuspended in PY medium (100-fold by volume) containing 0.5% of peptone, 0.5% of trypticase peptone, 1% of yeast extract, 0.00005% of hemin, 0.0001% of vitamin K1, 0.05% of L-cysteine hydrochloride, 0.0006% of KH2PO4, 0.0006% of K2HPO4, 0.0012% of NaCl, 0.0006% of (NH4)2SO4, 0.00006% of CaCl2 and 0.00006% of MgSO4. At this time, adonitol, arabinose, cellobiose, erythritol, fructo-oligosaccharide, fructose, galactose, glucose, glycogen, inositol, […], lactitol, lactose, lactulose, maltose, mannitol, mannose, melezitose, melibiose, raffinose, rhamnose, ribose, sorbitol, sorbose, sucrose, trehalose, xylose, or galacto-oligosaccharide was added so as to obtain a final concentration of 1%. Simultaneously, a series of sample containing no carbohydrate was prepared. To the series of samples, daidzein was added so as to obtain a final concentration of 100 μM. Culture was performed in completely anaerobic conditions at 37° C. for 16 hours. Note that culture was performed independently in four series. From the culture solution obtained, daidzein and equol were extracted and subjected to HPLC analysis. Note that inositol used herein is myo-inositol manufactured by SIGMA and glycogen was one derived from oyster and manufactured by SIGMA. Trehalose is D(+) trehalose (α,α form) manufactured by SIGMA and galacto-oligosaccharide is TOS-S, which is a mixture of 4′galactosyl-lactose and 6′galactosyl-lactose, and manufactured by Yakult Pharmaceutical Industry Co., Ltd. Fructo-oligosaccharide is a mixture of 1-kestose, nystose and 1-fructosyl-D-nystose manufactured by Wako Pure Chemical Industries, Ltd.
# Daidzein and equol were extracted by the following manner. To 500 μL of a culture solution, 250 μL of diethyl ether was added and sufficiently stirred. The solution mixture was centrifuged at 2,000 rpm for 10 minutes to obtain a diethyl ether layer. The remaining aqueous layer was subjected to diethyl ether extraction performed in the same manner. The ether layers obtained in the two extraction operations were combined, concentrated and dried under spray of nitrogen gas flow at 40° C. The dried product was dissolved in 250 μL of 80% methanol and filtrated through a filter to obtain a sample to be subjected to measurement.
# Furthermore, HPLC was performed in the following conditions:
# Daidzein and equol standard products were poured in the aforementioned conditions to form calibration curves, respectively. In this manner, daidzein and equol concentrations of the samples were determined. […]
# [2] = test system: microorganism having conversion ability to equol; test: Sub-culture of feces of an equol producer in PY medium containing a carbohydrate (selective medium), daidzein-to-equol conversion; type: cell-based; details: PY medium with 1% carbohydrate, daidzein 100 μM, 37° C., 16 hours per passage
# Description: A feces suspension solution stored in the process according to Experimental Example 1 was added to 500 μL of PY mediums (to which adonitol or sorbose was previously added so as to obtain a final concentration of 1%; and distilled water was added in place of adonitol or sorbose for preparing a control sample) so as to obtain a content of 1/10 and daidzein was added so as to obtain a final concentration of 100 μM. Each medium was cultured at 37° C. for 16 hours in completely anaerobic conditions. After the culturing, an aliquot of 50 μL was taken from the culture solution and transferred to a fresh PY medium (500 μL). The remaining culture solution was subjected to daidzein and equol extraction. Thereafter, the same operation was repeatedly performed. In this manner, sub-culture was performed. At this time, a bacterial solution was appropriately subjected to gram staining and microscopically observed. The extraction of daidzein and equol, and quantification by HPLC were performed in accordance with the method described in Experimental Example 1. Each obtained daidzein and equol concentration was fitted into the following formula to obtain a daidzein-to-equol conversion rate. Note that culture was performed independently in three series to obtain an average conversion rate and standard deviation thereof. […]
# [3] = rat, Non-Patent Document 5; cited from earlier work
# [4] = relative to medium containing no carbohydrate (=100%), carbohydrate 1%, daidzein 100 μM, 16 hours, read-out: Equol concentration regulating activity
# [5] = sample containing no carbohydrate taken as 100%, carbohydrate 1%, read-out: daidzein-to-equol conversion rate
# [6] = carbohydrate 1%, daidzein 100 μM, 16 hours
# [7] = read-out: daidzein-to-equol conversion rate
# [8] = relative to medium containing no carbohydrate (=100%), carbohydrate 1%, daidzein 100 μM, 16 hours
Compound,"activity at 1 % [1, 4] [%]","activity at 1 % [1, 5] [%]","Equol concentration in medium [1, 6] [µM]",other results
"OC[C@H]1O[C@@H](O[C@@H]2[C@@H](CO)OC(O)(CO)[C@H]2O)[C@H](O)[C@@H](O)[C@H]1O (mixture of isomers) [Lactulose, lactulose]",8.1,≤ 50,1.5,–
"OC[C@@H](O)[C@@H](O)[C@@H](O)CO [Adonitol, adonitol]",260,≥ 200,47.0,generation to which conversion ability to equol can be maintained in sub-culture [2]: 8th
"O=C[C@@H](O)[C@H](O)[C@H](O)CO [Arabinose, arabinose]",391,≥ 200,70.6,–
"O=C[C@H](O)[C@@H](O)[C@H](O[C@@H]1O[C@H](CO)[C@@H](O)[C@H](O)[C@H]1O)[C@H](O)CO [Cellobiose, cellobiose]",161,–,29.0,–
"OC[C@@H](O)[C@@H](O)CO [Erythritol, erythritol]",214,≥ 200,38.7,–
"O=C(CO)[C@@H](O)[C@H](O)[C@H](O)CO [Fructose, fructose]",51.5,–,9.3,–
"O=C[C@H](O)[C@@H](O)[C@@H](O)[C@H](O)CO [Galactose, galactose]",240,–,65.0,"activity at 1 % [1, 7]: ≥ 200%"
"O[C@H]1[C@H](O)[C@@H](O)[C@H](O)[C@@H](O)[C@H]1O [Inositol, myo-inositol]",416,≥ 200,75.2,–
"OC[C@@H](O)[C@@H](O[C@@H]1O[C@H](CO)[C@H](O)[C@H](O)[C@H]1O)[C@H](O)[C@@H](O)CO [Lactitol, lactitol]",459,≥ 200,82.9,–
"OC[C@H]1O[C@@H](O[C@H]2[C@H](O)[C@@H](O)C(O)O[C@@H]2CO)[C@H](O)[C@@H](O)[C@H]1O (stereo partly shown) [Lactose, lactose]",0,≤ 50,0.0,"daidzein added to the medium remaining ([1]; carbohydrate 1%): mostly remained; equol production [1, 6]: not observed"
"OC[C@H]1O[C@H](O[C@H]2[C@H](O)[C@@H](O)[C@H](O)O[C@@H]2CO)[C@H](O)[C@@H](O)[C@@H]1O [Maltose, maltose]",58.5,–,10.6,–
"OC[C@@H](O)[C@@H](O)[C@H](O)[C@H](O)CO [Mannitol, mannitol]",182,–,32.9,–
"OC[C@H]1O[C@@](CO)(O[C@H]2O[C@H](CO)[C@@H](O)[C@H](O)[C@H]2O)[C@@H](O[C@H]2O[C@H](CO)[C@@H](O)[C@H](O)[C@H]2O)[C@@H]1O [Melezitose, melezitose]",412,≥ 200,74.3,–
"OC[C@H]1O[C@H](OCC2O[C@@H](O)[C@H](O)[C@@H](O)[C@@H]2O)[C@H](O)[C@@H](O)[C@H]1O (stereo partly shown) [Melibiose, melibiose]",–,–,4.5,"Equol concentration regulating activity [1, 8]: 24.8%"
"OC[C@H]1O[C@H](OC[C@H]2O[C@H](O[C@]3(CO)O[C@H](CO)[C@@H](O)[C@@H]3O)[C@H](O)[C@@H](O)[C@@H]2O)[C@H](O)[C@@H](O)[C@H]1O [Raffinose, raffinose]",0,≤ 50,0.0,"daidzein added to the medium remaining ([1]; carbohydrate 1%): mostly remained; equol production [1, 6]: not observed"
"C[C@H](O)[C@H](O)[C@@H](O)[C@@H](O)C=O [Rhamnose, rhamnose]",116,–,21.0,–
"O=C[C@H](O)[C@H](O)[C@H](O)CO [Ribose, ribose]",330,≥ 200,59.5,–
"OC[C@@H](O)[C@@H](O)[C@H](O)[C@@H](O)CO [Sorbitol, sorbitol]",372,≥ 200,67.3,–
"O=C(CO)[C@H](O)[C@@H](O)[C@H](O)CO [Sorbose, sorbose]",468,–,84.5,"activity at 1 % [1, 7]: ≥ 200%; generation to which conversion ability to equol can be maintained in sub-culture [2]: 11th"
"OC[C@H]1O[C@@](CO)(O[C@H]2O[C@H](CO)[C@@H](O)[C@H](O)[C@H]2O)[C@@H](O)[C@@H]1O [Sucrose, sucrose]",0,≤ 50,0.0,"daidzein added to the medium remaining ([1]; carbohydrate 1%): mostly remained; equol production [1, 6]: not observed"
"OC[C@H]1O[C@H](O[C@H]2O[C@H](CO)[C@@H](O)[C@H](O)[C@H]2O)[C@H](O)[C@@H](O)[C@@H]1O [Trehalose, D(+) trehalose]",404,≥ 200,72.9,–
"O=C[C@H](O)[C@@H](O)[C@H](O)CO [Xylose, xylose]",443,≥ 200,79.9,–
Inulin [reference compound],–,–,0.0,"daidzein added to the medium remaining ([1]; carbohydrate 1%): mostly remained; effect on daidzein-to-equol conversion rate in this test system ([1]; carbohydrate 1%): significantly decreases; equol production [1, 6]: not observed; Equol concentration regulating activity [1, 8]: 0.0%; equol concentration in the serum [3]: reduces"
glycogen,–,–,33.4,"Equol concentration regulating activity [1, 8]: 184.8%"
